Tests used:
[1] = test system: intraplantar Complete Freund's Adjuvant (CFA)-induced acute inflammatory pain; assay: CFA Inflammation Model in Rats with Pain Behaviour Read Out; assay type: in vivo, male Sprague Dawley rats; settings: for PWT 2 hour-post drug / PWT 4 hour-post drug: mean PWT
Protocol: Compound was tested in the model of intraplantar Complete Freund's Adjuvant (CFA)-induced acute (48-hours setting) inflammatory pain in male Sprague Dawley rats. Briefly, 25 μl of CFA at 1 mg/ml was injected into the plantar surface of one hind paw. Mechanical hyperalgesia was measured using the Pressure Application Measurement apparatus (Ugo Basile, Gemonio, Italy). A linearly increasing pressure was applied to an area of approximately 50 mm^2 of the plantar side of the hind paw until a behavioural response (paw withdrawal) was observed or until the pressure reached 1000 grams of force (gf). The pressure at which the behavioural response occurred was recorded as the “Paw Withdrawal Threshold” (PWT). Both CFA-injected and contralateral PWTs were determined for each rat, in each treatment group and at each time point of the studies. The measurements were performed blinded. […] Compound or vehicle (10% DMSO, 40% Solutol, 50% water for injection, vol/vol) were dosed via oral route (p.o.) once daily (QD) or twice daily (BID) during 3 days, starting before CFA injection. Data were expressed as the mean PWT for each treatment group and at each time point. PWT data were analysed by performing a two way ANOVA with repeated measures (time×treatment). Planned comparison of means (each versus vehicle) was performed by using a Dunnett's post hoc test, provided that a main effect was detected. For p values less than 0.05, the results were deemed to be statistically significant.

human P2X4 = biological target: T1, human P2X4 (Homo sapiens, UniProt Q99571); assay: Human P2X4 HEK Cell FLIPR Assay; assay type: cell-based; settings: HEK293 stably expressing human P2X4, agonist Bz-ATP 3 μM (EC80); for IC50: read-out: Human P2X4 HEK Cells (FLIPR Assay) avg IC50
T1 construct: expressed in transfected cells
T1 sequence (Q99571 1-388): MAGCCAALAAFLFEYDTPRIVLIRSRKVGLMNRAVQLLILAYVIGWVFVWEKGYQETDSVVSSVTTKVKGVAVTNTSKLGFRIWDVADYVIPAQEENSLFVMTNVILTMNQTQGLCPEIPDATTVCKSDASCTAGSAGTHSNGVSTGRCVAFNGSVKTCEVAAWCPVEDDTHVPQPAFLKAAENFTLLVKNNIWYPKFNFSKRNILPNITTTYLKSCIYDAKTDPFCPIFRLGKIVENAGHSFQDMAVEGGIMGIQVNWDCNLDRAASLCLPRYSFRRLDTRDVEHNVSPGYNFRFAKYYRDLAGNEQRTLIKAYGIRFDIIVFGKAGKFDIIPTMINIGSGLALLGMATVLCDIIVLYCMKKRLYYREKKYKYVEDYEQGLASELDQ
In short: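 Compounds were preincubated 30 min at room temperature on Fluo8-AM-loaded HEK293 cells stably expressing human P2X4. The response was the calcium fluorescence rise on Bz-ATP addition.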

rat P2X4 = biological target: T2, rat P2X4 (Rattus norvegicus, UniProt P51577); assay: FLIPR Method for Rat P2X4 1321N1 Astrocytoma Cells; assay type: cell-based; settings: 1321N1 stably expressing rat P2X4; agonist MgATP 5 μM (EC80)
T2 construct: expressed in transfected cells
T2 sequence (P51577 1-388): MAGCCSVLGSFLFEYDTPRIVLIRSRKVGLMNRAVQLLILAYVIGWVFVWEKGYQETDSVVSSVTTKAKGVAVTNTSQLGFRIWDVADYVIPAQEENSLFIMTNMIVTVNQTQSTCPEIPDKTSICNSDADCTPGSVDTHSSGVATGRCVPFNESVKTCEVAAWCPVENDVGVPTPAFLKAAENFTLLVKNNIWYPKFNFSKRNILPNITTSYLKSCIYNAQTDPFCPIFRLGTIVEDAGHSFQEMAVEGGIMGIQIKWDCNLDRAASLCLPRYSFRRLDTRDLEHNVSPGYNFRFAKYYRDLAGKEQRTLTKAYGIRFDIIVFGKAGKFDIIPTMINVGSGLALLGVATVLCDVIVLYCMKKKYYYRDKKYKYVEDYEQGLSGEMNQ
In short: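 1321N1 cells stably expressing rat P2X4, Fluo8-AM loaded; compounds (25 μM to 1 nM final, ten concentrations) preincubated 30 min at room temperature, then MgATP added at 5 μM (EC80). Calcium fluorescence read on FLIPR before and after agonist; triplicate data normalized to agonist control, four-parameter fit gives IC50.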

[2] = test system: neuropathic mechanical allodynia induced by CCI surgery; assay: Chronic Constriction Injury (CCI) Neuropathic Pain Model in Rats with Pain Behavior Read Out; assay type: in vivo, male Sprague-Dawley rats; settings: rat CCI; von Frey; gabapentin 100 mg/kg SID on days 0, 2, 5, 9; all post-dose time points
Protocol: Aim of the study was to test the efficacy of example 68 at ameliorating neuropathic mechanical allodynia. Male Sprague-Dawley rats were subject to chronic constriction injury of the sciatic nerve to induce neuropathic pain. Of those rats, 10 per group were assigned to treatment conditions involving BID drug administration for 10 days and behavioral assessment of mechanical sensitivity for allodynia with von Frey testing (vF). Behavior was assessed pre- and postdosing on Days 0, 2, 5, and 9. Rats were treated with Vehicle or test article BID on days 0 through 9, and rats in the gabapentin treatment group received gabapentin SID on days 0, 2, 5, and 9 in conjunction with behavioral assessment.
As vehicle Solutol/DMSO/WFI (40/10/50) was employed. Application volume for the per oral administration was 10 ml/kg.
Neuropathy was induced in male Sprague-Dawley rats by tying four loose ligatures of chromic gut around the common sciatic nerve in deeply anesthetized rats like described in Bennett, G. J., and Y. K. Xie. “A Peripheral Mononeuropathy in Rat That Produces Disorders of Pain Sensation like Those Seen in Man.” Pain 33 (1988): 87-107.
Mechanical allodynia was measured using 8 Semmes-Weinstein filaments (Stoelting©; Wood Dale, Ill., USA) with varying stiffness (0.4, 0.6, 1.0, 2.0, 4.0, 6.0, 8.0, and 15 g) according to the up-down method1. Animals were placed in individual acrylic chambers on a metal mesh surface and allowed to acclimate to their surroundings for a minimum of 15 minutes before testing. Each filament was presented perpendicular to the plantar surface with sufficient force to cause slight buckling against the paw and held for approximately 6 seconds or until a positive response is noted (paw sharply withdrawn).
Testing was initiated with the 2.0 g filament. In the absence of a paw withdrawal response, the next stronger stimulus was presented. In the event of paw withdrawal, the next weaker stimulus was used. […]
The 50% response threshold is calculated using the formula: […]

[3] = rat CFA, 50 mg/kg QD p.o. during 3 days
[4] = rat CFA, 100 mg/kg QD p.o. during 3 days

SMILES	PWT 2 hour-post drug [1, 3] [gf]	PWT 4 hour-post drug [1, 3] [gf]	PWT 2 hour-post drug [1, 4] [gf]	PWT 4 hour-post drug [1, 4] [gf]	pain after treatment ([1]; rat CFA, 50 and 100 mg/kg doses QD, 2 and 4 hours after last administration)	development of inflammatory pain after the injection of CFA ([1]; rat, oral administration QD during 3 days)	Human P2X4 HEK Cells (FLIPR Assay) avg Efficacy (human P2X4) [%]	IC50 (human P2X4) [nM]	IC50 (rat P2X4) [nM]	Rat P2X4 1321N1 Astrocytoma Cells (FLIPR Assay) avg Efficacy (rat P2X4) [%]	paw withdrawal thresholds [2]
CC(=O)N(c1ccc(F)cc1)c1cc(NC(=O)Cc2cccc(F)c2Cl)ccn1 [Example 2, N-{4-[2-(2-chloro-3-fluorophenyl)acetamido]pyridin-2-yl}-N-(4-fluorophenyl)acetamide]	727	688	763	839	significantly reduced pain	prevented the development of inflammatory pain	97	212	358	95	
NCC1(CC(=O)O)CCCCC1 [Gabapentin, gabapentin, reference compound]											significantly increased paw withdrawal thresholds
CC(=O)N(c1cc(NC(=O)Cc2ccc(F)cc2Cl)ccn1)c1cccc(F)c1F [Example 123, N-{4-[2-(2-chloro-4-fluorophenyl)acetamido]pyridin-2-yl}-N-(2,3-difluorophenyl)acetamide]							97	435	633	89	
CC(=O)N(c1cc(NC(=O)Cc2ccccc2Cl)ccn1)c1ccc(F)cc1F [Example 126, N-{4-[2-(2-chlorophenyl)acetamido]pyridin-2-yl}-N-(2,4-difluorophenyl)acetamide]							96	176	377	83	
CC(=O)N(c1cccc(Cl)c1)c1cc(NC(=O)Cc2ccccc2Cl)ccn1 [Example 131, N-(3-chlorophenyl)-N-{4-[2-(2-chlorophenyl)acetamido]pyridin-2-yl}acetamide]							98	206	262	98	
CC(=O)N(c1cc(NC(=O)Cc2c(Cl)cccc2Cl)ccn1)c1ccc(F)cc1F [Example 129, N-{4-[2-(2,6-dichlorophenyl)acetamido]pyridin-2-yl}-N-(2,4-difluorophenyl)acetamide]							104	197	212	96	
CC(=O)N(c1cc(NC(=O)Cc2cccc(F)c2Cl)ccn1)c1ccc(F)cc1F [Example 128, N-{4-[2-(2-chloro-3-fluorophenyl)acetamido]pyridin-2-yl}-N-(2,4-difluorophenyl)acetamide]							101	184	454	87	
CC(=O)N(c1ccc(F)cc1)c1cc(NC(=O)Cc2cccc(C)c2C)ccn1 [Example 29, N-{4-[2-(2,3-dimethylphenyl)acetamido]pyridin-2-yl}-N-(4-fluorophenyl)acetamide]							91	391	92.5	77	
CC(=O)N(c1ccc(F)cc1)c1cc(NC(=O)Cc2ccccc2C(F)(F)F)ccn1 [Example 30, N-(4-fluorophenyl)-N-(4-{2-[2-(trifluoromethyl)phenyl]acetamido}pyridin-2-yl)acetamide]							98	384	727	96	
CC(=O)N(c1ccc(F)c(F)c1)c1cc(NC(=O)Cc2c(C)cc(C)cc2Cl)ccn1 [Example 65, N-{4-[2-(2-chloro-4,6-dimethylphenyl)acetamido]pyridin-2-yl}-N-(3,4-difluorophenyl)acetamide]							94	505	122	93	
